Data: a melting point compilation (Tetko et al.; mined from patent text by program, amines drawn as free bases though some values may be those of a salt)

Row | melting point [°C] | SMILES
1 | 114 to 116 | CN(C)CCC1CCCCN1CCN(C)C(=O)N1c2ccccc2C(=O)Nc2cccnc21 (configuration not stated)
2 | 157 to 159 | O=C1CCC(c2ccc(O)cc2)=NN1
3 | 75 to 77 | Cc1cc(OC2CCCC2)ccc1NC(=O)OC(C)(C)C
4 | > 250 | O=C(O)C1=CSC2C(=Cc3cc4c(s3)CCSC4)C(=O)N12 (configuration not stated)
5 | 123 to 124 | CN(C)Cc1c(-c2ccccc2)nc2c(C(=O)NC(C#N)c3cccc(F)c3)cccn12 (configuration not stated)
6 | 231 to 233 | CC(C)(C)c1cc(Nc2cccc(-c3nnn[nH]3)c2)cc(C(C)(C)C)c1O
7 | 57.8 to 58.5 | COc1cc(C(C)=O)ccc1OCCCCl
8 | 166 to 168 | Cc1c(SCCN2CCNCC2)ccnc1CSc1nc2ccccc2[nH]1
9 | 140 to 142 | C(=CCN(c1ccccc1)c1cccc2ccccc12)CN(c1ccccc1)c1cccc2ccccc12
10 | 177 to 179 | O=C(O)c1sc(-c2ccc(C(F)(F)F)cc2)nc1C(F)(F)F
11 | 195 to 198 | CC(=O)OCCN(CCOC(C)=O)c1ccc(C=CC=Cc2ccc([N+](=O)[O-])cc2)cc1
12 | 63 | CCOC(=O)Cc1nc(Cl)c(Cl)s1
13 | 218 to 219 | CN1Cc2c(Cl)cc(F)c(-n3c(=O)cc(C(F)(F)F)n(C)c3=O)c2O1
14 | 113 to 114 | COc1ccc2c(c1)C(=O)c1c-2c(NCCCN(C)C)nc2ccccc12
15 | 256 to 257 | Cc1ccc(S(=O)(=O)n2c(-c3cn(C)c4ccc(O)cc34)cc3cccnc32)cc1
16 | 78 to 125 | O=C(O)C1(c2ccccc2)CC2CC2C1 (configuration not stated)
17 | 131 to 133 | CCOC(=O)c1ccc(NC(=O)c2sc3ccc(OC)cc3c2OC(C)C)nc1
18 | 156 | Cc1ccc(NC(=O)OC2CCCCC2)cc1NC(=O)OC1CCCCC1
19 | 112 to 114 | CC(=O)SCCN1C(=O)c2ccccc2C1=O
20 | 60 | COc1ccc(OC[C@@H](O)CNCCc2ccc(NC3SC(=O)NC3=O)cc2)cc1 (some centres not stated)
21 | 229 | C[C@H]1Cn2c(=O)[nH]c3ccc(Br)c(c32)CN1C(=O)OC(C)(C)C
22 | 71 to 73 | O=C(O)CSC12CC3CC(CC(C3)C1)C2
23 | 170 to 172 | CCOC(=O)c1cnn2c1nc(N(CC)CC)c1cnc3c(cnn3CC)c12

Row | melting point [°C] | SMILES
24 | 177 to 179 | COC(=O)c1cccc(CNC(C)=O)c1C(=O)OC
25 | 167 to 169 | CC(C)(C)OC(=O)Nc1ccc(C#Cc2ccc(OC(F)(F)F)cc2)cc1N
26 | 171 | C=C(C)CN1Cc2cc(Cl)cc3[nH]c(=S)n(c23)[C@@H](C)C1
27 | 154 to 155 | CCC1(C)OC(c2ccc(S(N)(=O)=O)cc2)=C(c2ccc(C(C)=O)cc2)C1=O (configuration not stated)
28 | 59 to 61 | CCCCCCCCc1ccc(OC2=CC(=O)OC2O)cc1 (configuration not stated)
29 | 88 to 91.5 | COC(=O)C(C)n1nnc2ccc(OCc3ccccc3)cc21 (configuration not stated)
30 | 165 to 167 | Cc1ccccc1C(=O)Nc1ccc(-n2nc(C(F)(F)F)cc2C(F)(F)F)cc1
31 | 72.7 to 73.3 | CCCCCC1CCc2cc(C(=O)Oc3ccc(C#N)cc3)ccc2C1 (configuration not stated)
32 | 140 to 142 | Clc1cc(Cl)c2oc(Cl)nc2c1
33 | 163 to 165 | CS(=O)(=O)c1ccc(C2=CC(=O)C3(CCOCC3)O2)cc1
34 | 161 to 163 | CC(C)(C)OC(=O)OC(=O)c1ccc(NNC(N)=S)cc1
35 | 112 to 113 | O=C(O)c1ccc(OC(=O)c2ccc(O)c(C34CC5CC(CC(C5)C3)C4)c2)nc1
36 | 161 to 162 | CC(C)Nc1cccnc1N1CCN(C(=O)c2ccc(C(=O)N(CCO)CCO)cc2)CC1
37 | 71 to 73 | OC(c1cc(Cl)cc(Cl)c1)C(F)(F)C(F)(F)F (configuration not stated)
38 | 290 | O=c1[nH]c2cc(F)ccc2n(C2CCCCC2)c1=O
39 | 142 to 143 | CCCCC(O)(COc1ccc(C(=O)O)c(O)c1)c1ccc2c(c1)C(C)(C)CCC2(C)C (configuration not stated)
40 | 78 to 79 | COCNC(=O)ON=C1SCOC1C (configuration not stated)
41 | 287 to 288 | CC(=O)N[C@H]1CC[C@H](Nc2nccc(-n3nnc4ccccc43)n2)CC1
42 | 118 to 120 | CCCCc1nn(-c2ccccc2Cl)c(=O)n1Cc1ccc(-c2ccccc2S(=O)(=O)NC(=O)c2ccc(F)cc2)cc1
43 | 200 to 205 | O=C(O)CCNc1cc(C(c2cc(F)ccc2F)S(=O)(=O)c2ccc(Cl)cc2)c(Cl)cn1 (configuration not stated)
44 | 176 to 179 | COc1ccc(/C=C/CNc2cccc(-c3ccnc4c(C(=O)c5cccs5)cnn34)c2)cc1
45 | 227 to 228 | Nc1c([N+](=O)[O-])cnc2sccc12
46 | 194 | CNC(=O)c1cccc(NC(=O)COc2cccc3ccccc23)c1

Row | melting point [°C] | SMILES
47 | 191 to 192 | Cc1nc(NCCc2ccccc2)sc1-c1ccnc(Nc2ccc(N3CCN(Cc4ccccc4)CC3)cc2)n1
48 | 57 to 60 | Cc1cccc(COc2cccc(OCc3cnc4ccccc4n3)c2)c1C(=O)O
49 | 254 to 262 | Cc1nc(O)c(C#N)c(C)c1Br
50 | 157 to 165 | CC=C(C)C1CCC2C3CCC4=CC(=O)CCC4(C)C3CCC12C (configuration not stated)
51 | 228 | COc1ccc(-c2ccncc2OC2SCC(O)C(O)C2O)cc1 (configuration not stated)
52 | 131 to 132 | CCCCCCCCOc1ccc(-c2ncc(O)cn2)cc1
53 | 215 | O=C(O)c1c(Br)nc(-c2ccccc2)n1Cc1cc2c(cc1Cl)OCO2
54 | 78 | COc1ccc([N+](=O)[O-])cc1CBr
55 | 183 | Nc1cccc2c1C1CCCCN1C2=O (configuration not stated)
56 | 227 to 230 | Cc1nc(OC(C)C)nc(C)c1N1CCCn2c1nc1c(Cl)ccc(C(OC(F)F)C(F)(F)F)c12 (configuration not stated)
57 | 178 to 180 | COc1ccc(C(=O)Nc2ccccc2)cc1Nc1ccc(F)cc1
58 | 222 to 223 | O=C(O)Cc1c(-c2ccccc2)c2cc(Cl)c(Cl)cc2oc1=O
59 | 88 to 89 | CC[C@H]1C(=O)N([Si](C)(C)C(C)(C)C)[C@H]1C(=O)C=[N+]=[N-]
60 | 161 to 162 | CC1Sc2c(C(=O)O)c(=O)c3cc(F)c(N4CCC(N(C)C)C4)c(Cl)c3n21 (configuration not stated)
61 | 68 to 69 | CCCCCCCCCCCCOc1ccc2c(c1)C(CCNC(=O)CCC)CC2 (configuration not stated)
62 | 183 | OCCOCCNc1nc(-n2ccnc2)nc2ccc(CO)cc12
63 | 196 to 198 | O=C1Cc2cc(Cl)cc(Oc3ccccc3Cl)c2N1
64 | > 300 | Nc1nc2cc[nH]c2c(=O)[nH]1
65 | 175 to 177 | CCCc1c(OCCCCCOc2ccc(C(=O)c3ccc(C(=O)O)cc3)cc2CCC(=O)O)ccc2c1OCCC2=O
66 | 196 to 197 | CC(C)n1nc(-c2cc(I)c(N)nc2-c2ccccc2)ccc1=O
67 | 126 to 127 | COC(=O)C(CCSC)NCC(=O)Nc1cccc2c1C(=O)c1c(NC(=O)CNC(CCSC)C(=O)OC)cccc1C2=O (configuration not stated)
68 | 105 to 106 | CCCCCCOc1cc(-c2ccc3cc4c(cc3c2)C(C)(C)CCC4(C)C)ccc1C(=O)O
69 | 122 to 125 | O=C(CC(c1cc(F)ccc1F)S(=O)(=O)c1ccc(Cl)cc1)N1CCCC1 (configuration not stated)

Row | melting point [°C] | SMILES
70 | 136 to 137 | N=C(NC(=O)OCc1ccccc1)N(C(=O)OCc1ccccc1)C1CCC(CCN2CCN(c3ccccc3)CC2)CC1 (configuration not stated)
71 | 97 to 99 | Cc1nccn1CCCC1CCc2onc(-c3ccccc3)c2C1=O (configuration not stated)
72 | 225 to 228 | Cn1c(-c2ccc(F)cc2)c(OCCOc2ccc(C=C3SC(=O)NC3=O)cc2)c(=O)c2ccccc21
73 | 95 to 98 | O=C1[C@H]2CCC[C@H]2N(C(=O)CNCc2ccccc2)c2ccccc2N1Cc1ccccc1 (relative stereo)
74 | 157 to 158 | Cc1cc(=O)[nH]c2ccc(C(O)(C(F)(F)F)C(F)(F)F)cc12
75 | 193 to 194 | CC(C)(C)OC(=O)N1CCCC(c2nc(-c3ccncc3)c(-c3ccc(F)cc3)[nH]2)C1 (configuration not stated)
76 | 165 to 168 | CNC(=S)NS(=O)(=O)c1cc(CCNC(=O)c2cc(C(C)(C)C)ccc2OC)ccc1OC
77 | 124 | CCC(C)Cc1nc(-c2cc[nH]n2)nc(OC)c1-c1c(F)cc(F)cc1F (configuration not stated)
78 | 198 to 200 | CC(C)(C)c1cc2c(c(-c3nc4ncccc4o3)c1)CCC2
79 | 75 | CCCCCCCCOc1ccc(-c2ncc(-c3ccc(CCCCCCCC)cc3)cn2)c(F)c1
80 | 166 to 170 | CC(=O)c1ccc(-c2ccc(O)c(Br)c2)cc1
81 | > 290 | Cc1ccc(C)n1-c1ccc2ccc3c([nH]c(=O)c(=O)n3CC(=O)NCc3ccccc3)c2c1
82 | 201 | CCS(=O)(=O)N=CNCc1cccc(-c2csc(N=C(N)N)n2)n1
83 | 132 | CCOc1ccc2c(c1)n(CCN(C(C)C)C(C)C)c(=O)n2S(=O)(=O)c1ccc(OC)cc1OC
84 | 165 to 166 | Oc1ccc2cc(OCC(O)CCc3cccnc3)ccc2c1 (configuration not stated)
85 | 78 to 80 | Cc1cc(-c2cc(C(F)(F)F)nn2-c2ccc(S(N)(=O)=O)c(F)c2)ccc1-c1ccco1
86 | 107 to 109 | C[C@@H]1CN(CCCn2c3ccccc3c3ccccc32)C[C@H](C)N1
87 | 152 | C=COC(=O)N1C[C@@H]2C(=O)CCC(c3cccc(F)c3)(c3cccc(F)c3)[C@@H]2C1 (racemic)
88 | 148 to 149 | Oc1ccc2c(CCC3CCN(Cc4ccccc4)CC3)noc2c1
89 | 169 to 170 | O=C(Nc1ccc(Oc2ccccc2)cc1)N1CCN(c2ncnc3ccc(Br)cc23)CC1
90 | 202 to 204 | CCc1nc(OC)c(NC(=O)N2CCN(c3cc(F)cc(F)c3)CC2)cc1C(=O)NC(C)C(=O)Nc1cc(CO)cc(Nc2c3ccccc3nc3ccccc23)c1 (configuration not stated)
91 | 163 to 166 | N#Cc1ccc(OCCCCCOc2ccc(-c3cc4cc(C#N)ccc4o3)cc2)cc1
92 | 134 to 135 | CC(C)(C)OC(=O)N1CC=C(c2c(F)cc(N)cc2F)CC1

Row | SMILES | melting point [°C]
93 | O=C(O)Cc1csc(NC(=O)OCC(Cl)(Cl)Cl)n1 | 164
94 | Clc1ccc2c(c1)CNc1ccccc1O2 | 123 to 125
95 | Cc1ccc(-c2c(C#N)nn(-c3c(Cl)cc(C(F)(F)F)cc3Cl)c2N)cc1 | 243 to 244
96 | CC1(O)C(O)C(CO)OC1n1ccc2c(N)ncnc21 (configuration not stated) | 222
97 | CC(C)N1Cc2cccc(F)c2N(CCN2CC=C(c3c[nH]c4cc(F)ccc34)CC2)S1(=O)=O | 199 to 201
